Laboratory results as given in ChEMBL document CHEMBL1201862, “PubChem BioAssay data set” (2004).
The source made the active and inactive calls.

Tests used:
[1] = biological target: T1, RNA-binding protein pos-1 (Caenorhabditis elegans, UniProt G5EF15); experiment: inhibitors of POS-1/mex-3 RNA binding, dose response, biochemical, fluorescence polarization (AID 1964);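 further: purified POS-1 fused to maltose binding protein made in E. coli; potency of compounds blocking POS-1 binding to fluorescent RNA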
T1 sequence (G5EF15 whole entry): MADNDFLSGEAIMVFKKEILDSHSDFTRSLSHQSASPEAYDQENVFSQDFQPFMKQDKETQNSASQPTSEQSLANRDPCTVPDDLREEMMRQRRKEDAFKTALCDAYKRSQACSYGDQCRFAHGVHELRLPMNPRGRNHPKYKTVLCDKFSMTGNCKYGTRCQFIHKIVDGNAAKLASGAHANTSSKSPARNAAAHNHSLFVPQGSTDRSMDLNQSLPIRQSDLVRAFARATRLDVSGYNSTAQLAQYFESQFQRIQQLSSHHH

[2] = biological target: T2, Zinc finger protein mex-5 (Caenorhabditis elegans, UniProt Q9XUB2); experiment: MEX-5/TCR-2 RNA interaction inhibitors, dose response, biochemical, C. elegans, fluorescence polarization (AID 1960)
T2 sequence (Q9XUB2 whole entry): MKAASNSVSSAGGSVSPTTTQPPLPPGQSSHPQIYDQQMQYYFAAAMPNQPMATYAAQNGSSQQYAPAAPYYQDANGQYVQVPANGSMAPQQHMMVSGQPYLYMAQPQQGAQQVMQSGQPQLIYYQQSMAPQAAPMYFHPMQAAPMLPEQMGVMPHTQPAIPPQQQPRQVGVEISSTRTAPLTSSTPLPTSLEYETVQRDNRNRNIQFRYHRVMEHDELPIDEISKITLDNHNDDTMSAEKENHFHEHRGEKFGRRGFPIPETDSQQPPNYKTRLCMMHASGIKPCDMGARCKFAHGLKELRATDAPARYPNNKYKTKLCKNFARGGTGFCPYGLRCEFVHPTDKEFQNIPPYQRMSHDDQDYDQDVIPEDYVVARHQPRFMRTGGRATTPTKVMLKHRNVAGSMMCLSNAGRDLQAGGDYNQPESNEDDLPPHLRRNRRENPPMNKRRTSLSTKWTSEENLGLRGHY

[3] = inhibitors of firefly luciferase expression or activity, dose response, H4 neuroglioma cells, luminescence (AID 1990); assay type: functional, cell-based
[4] = Luminescence Cell-Based Dose Response HTS to Identify Inhibitors of 5'UTR Stem-Loop Driven Prion Protein mRNA Translation in H4 Neuroglioblastoma Cells. [Related pubchem assays: 1827 (Project Summary), 1813 (Primary HTS)]; assay type: functional
[5] = inhibitors of SNCA 5'UTR-driven reporter translation, confirmation, H4 neuroglioma cells, luminescence (AID 1988); assay type: functional, cell-based
[6] = Shn3 3'UTR reporter inhibitors, dose response, cell-based, Clone20 osteoblasts, firefly luciferase, cherry-picked (AID 624132); assay type: functional;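 further: firefly luciferase luminescence from reporter carrying the Shn3 3'UTR in osteoblasts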
[7] = control 3'UTR Renilla luciferase suppression, dose response, counter-screen for Shn3 inhibitor project, cell-based, Clone20-Shn3RL, cherry-picked (AID 624133); assay type: functional
H9c2 = experiment: cells; assay type: functional, cell-based; details: Rattus norvegicus, H9c2, Myocardium;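 further: confirmatory concentration-response retest of ultra-high-throughput screening hits for modulation of myocardial damage; cell death induced by hydrogen peroxide oxidative stress; compound pretreatment for 60 min then peroxide exposure for 2 h; potency is for protecting the cells against peroxide damage rather than for killing them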
[8] = inhibitors of HIV Env-driven cell fusion, dose response, cherry-pick (AID 652057); assay type: functional, cell-based
[9] = ZM109 Env clade C HIV-1 fusion inhibitors, dose response, HeLa effector, CEM target cells, luciferase, cherry-pick (AID 652058); assay type: functional, cell-based
[10] = off-target signal loss in HeLa-CEM21 co-culture – HeLa F-luc CTL cells, cherry-picked, counter-screen for HIV-1 Env fusion inhibitor project, dose response (AID 652040); assay type: functional, cell-based;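 further: potency for signal decrease marking cytotoxic or nonspecific inhibition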
[11] = inhibitors of clade B AD8 Env fusion, dose response, cell-based, cherry-pick (AID 652062); assay type: functional;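 further: luciferase signal from cell-cell fusion driven by HIV-1 clade B AD8 Env; potency is for inhibitors of fusion seen as a drop in luminescence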
[12] = growth suppression of PTEN-null colon cells, dose response, cell-based, HCT116 PTEN knockout (AID 1047); assay type: functional;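 further: HCT116 colon tumor cells with PTEN knocked out; cells exposed to compound for 60 hours before readout; potency for loss of cell viability measured by luminescence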
[13] = growth suppression of beta-catenin-knockout colon cells, dose response, cell-based, HCT116, human colon tumor (AID 1045); assay type: functional;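 further: HCT116 colon tumor cells with beta catenin knocked out; cells exposed to compound for 60 hours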
Fatty acid synthase [14] = biological target: T3, Fatty acid synthase (Homo sapiens, UniProt P49327); experiment: FAS thioesterase domain inhibitors, dose response, biochemical, endpoint fluorescence intensity, uHTS hits (AID 624327); assay type: functional;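 further: fluorescence from hydrolysis of an O-methyl fluorescein acyl ester substrate by the enzyme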
Fatty acid synthase [15] = biological target: T3, Fatty acid synthase; experiment: FAS thioesterase domain inhibitors, dose response, biochemical, kinetic fluorescence intensity (AID 624326); assay type: functional;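 further: rate of fluorescence rise from hydrolysis of a fluorogenic O-methyl fluorescein ester substrate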
[16] = biological target: T4, Corticotropin-releasing factor receptor 2/Corticotropin-releasing factor-binding protein (Homo sapiens, UniProt P24387+Q13324); experiment: Dose Response confirmation of uHTS hits for small molecule antagonists of the CRF-binding protein and CRF-R2 receptor complex.; assay type: functional; details: read-out: IC50_Mean
T4 sequence (Q13324 whole entry): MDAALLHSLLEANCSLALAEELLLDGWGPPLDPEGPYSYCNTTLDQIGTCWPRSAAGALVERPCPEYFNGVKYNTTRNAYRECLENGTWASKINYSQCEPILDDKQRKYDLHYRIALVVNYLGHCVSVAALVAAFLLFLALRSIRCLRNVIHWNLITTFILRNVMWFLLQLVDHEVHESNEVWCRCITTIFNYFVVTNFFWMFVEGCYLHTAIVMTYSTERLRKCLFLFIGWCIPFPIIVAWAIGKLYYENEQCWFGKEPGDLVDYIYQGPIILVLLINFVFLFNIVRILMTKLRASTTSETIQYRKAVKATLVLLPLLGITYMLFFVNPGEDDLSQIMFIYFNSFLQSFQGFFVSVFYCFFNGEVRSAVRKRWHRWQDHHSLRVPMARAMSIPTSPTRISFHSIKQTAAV
T4 sequence (P24387 whole entry): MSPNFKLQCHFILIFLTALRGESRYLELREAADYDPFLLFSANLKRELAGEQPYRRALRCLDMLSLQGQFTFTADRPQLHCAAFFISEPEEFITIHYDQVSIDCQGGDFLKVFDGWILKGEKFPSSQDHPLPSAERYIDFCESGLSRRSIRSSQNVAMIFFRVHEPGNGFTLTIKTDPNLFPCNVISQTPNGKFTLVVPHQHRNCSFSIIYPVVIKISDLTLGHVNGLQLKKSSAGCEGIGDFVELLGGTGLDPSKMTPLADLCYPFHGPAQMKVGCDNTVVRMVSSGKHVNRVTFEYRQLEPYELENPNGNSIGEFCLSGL

[17] = biological target: T4, Corticotropin-releasing factor receptor 2/Corticotropin-releasing factor-binding protein; experiment: activators of CRF receptor 2 with binding protein – uHTS hits, confirmation (AID 602473); assay type: functional; details: read-out: EC50_Mean
[18] = system: Streptococcus sp. 'group A'; experiment: growth inhibition of control SK(-) GAS strain, dose response, counter-screen for streptokinase expression inhibitor project, luminescence, kanamycin, BacTiterGlo, confirmation (AID 1900); assay type: functional, organism-based
Streptococcus = experiment: Group A Streptococcus viability loss, dose response, counter-screen for streptokinase expression inhibitor project, luminescence, BacTiterGlo (AID 1915); assay type: functional, organism-based;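 further: potency for reduction of bacterial viability or growth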
[19] = NIH-3T3 fibroblast cytotoxicity, dose response, cytotoxicity control, cell-based, fluorescence, Alamar Blue, secondary assay (AID 2327); assay type: functional;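 further: NIH-3T3 mouse fibroblasts cultured with fluconazole at 8 µg/mL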
[20] = inhibitors of intracellular T. cruzi replication, confirmation, NIH3T3 host cells, beta-gal luminescence (AID 2044); assay type: functional, cell-based;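 further: intracellular parasites grown in NIH/3T3 mouse fibroblasts as host cells; luminescent beta-galactosidase reporter signal from transgenic T. cruzi replicating inside host cells; inhibitors lower the luminescence signal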
[21] = cytotoxicity toward NIH3T3 fibroblasts, dose response, counter-screen, cell-based, ATP luminescence, mouse fibroblasts (AID 2010); assay type: functional;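 further: cells exposed to compound for about 90 hours before reading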

T3 sequence (P49327 whole entry, the tested form may be a part): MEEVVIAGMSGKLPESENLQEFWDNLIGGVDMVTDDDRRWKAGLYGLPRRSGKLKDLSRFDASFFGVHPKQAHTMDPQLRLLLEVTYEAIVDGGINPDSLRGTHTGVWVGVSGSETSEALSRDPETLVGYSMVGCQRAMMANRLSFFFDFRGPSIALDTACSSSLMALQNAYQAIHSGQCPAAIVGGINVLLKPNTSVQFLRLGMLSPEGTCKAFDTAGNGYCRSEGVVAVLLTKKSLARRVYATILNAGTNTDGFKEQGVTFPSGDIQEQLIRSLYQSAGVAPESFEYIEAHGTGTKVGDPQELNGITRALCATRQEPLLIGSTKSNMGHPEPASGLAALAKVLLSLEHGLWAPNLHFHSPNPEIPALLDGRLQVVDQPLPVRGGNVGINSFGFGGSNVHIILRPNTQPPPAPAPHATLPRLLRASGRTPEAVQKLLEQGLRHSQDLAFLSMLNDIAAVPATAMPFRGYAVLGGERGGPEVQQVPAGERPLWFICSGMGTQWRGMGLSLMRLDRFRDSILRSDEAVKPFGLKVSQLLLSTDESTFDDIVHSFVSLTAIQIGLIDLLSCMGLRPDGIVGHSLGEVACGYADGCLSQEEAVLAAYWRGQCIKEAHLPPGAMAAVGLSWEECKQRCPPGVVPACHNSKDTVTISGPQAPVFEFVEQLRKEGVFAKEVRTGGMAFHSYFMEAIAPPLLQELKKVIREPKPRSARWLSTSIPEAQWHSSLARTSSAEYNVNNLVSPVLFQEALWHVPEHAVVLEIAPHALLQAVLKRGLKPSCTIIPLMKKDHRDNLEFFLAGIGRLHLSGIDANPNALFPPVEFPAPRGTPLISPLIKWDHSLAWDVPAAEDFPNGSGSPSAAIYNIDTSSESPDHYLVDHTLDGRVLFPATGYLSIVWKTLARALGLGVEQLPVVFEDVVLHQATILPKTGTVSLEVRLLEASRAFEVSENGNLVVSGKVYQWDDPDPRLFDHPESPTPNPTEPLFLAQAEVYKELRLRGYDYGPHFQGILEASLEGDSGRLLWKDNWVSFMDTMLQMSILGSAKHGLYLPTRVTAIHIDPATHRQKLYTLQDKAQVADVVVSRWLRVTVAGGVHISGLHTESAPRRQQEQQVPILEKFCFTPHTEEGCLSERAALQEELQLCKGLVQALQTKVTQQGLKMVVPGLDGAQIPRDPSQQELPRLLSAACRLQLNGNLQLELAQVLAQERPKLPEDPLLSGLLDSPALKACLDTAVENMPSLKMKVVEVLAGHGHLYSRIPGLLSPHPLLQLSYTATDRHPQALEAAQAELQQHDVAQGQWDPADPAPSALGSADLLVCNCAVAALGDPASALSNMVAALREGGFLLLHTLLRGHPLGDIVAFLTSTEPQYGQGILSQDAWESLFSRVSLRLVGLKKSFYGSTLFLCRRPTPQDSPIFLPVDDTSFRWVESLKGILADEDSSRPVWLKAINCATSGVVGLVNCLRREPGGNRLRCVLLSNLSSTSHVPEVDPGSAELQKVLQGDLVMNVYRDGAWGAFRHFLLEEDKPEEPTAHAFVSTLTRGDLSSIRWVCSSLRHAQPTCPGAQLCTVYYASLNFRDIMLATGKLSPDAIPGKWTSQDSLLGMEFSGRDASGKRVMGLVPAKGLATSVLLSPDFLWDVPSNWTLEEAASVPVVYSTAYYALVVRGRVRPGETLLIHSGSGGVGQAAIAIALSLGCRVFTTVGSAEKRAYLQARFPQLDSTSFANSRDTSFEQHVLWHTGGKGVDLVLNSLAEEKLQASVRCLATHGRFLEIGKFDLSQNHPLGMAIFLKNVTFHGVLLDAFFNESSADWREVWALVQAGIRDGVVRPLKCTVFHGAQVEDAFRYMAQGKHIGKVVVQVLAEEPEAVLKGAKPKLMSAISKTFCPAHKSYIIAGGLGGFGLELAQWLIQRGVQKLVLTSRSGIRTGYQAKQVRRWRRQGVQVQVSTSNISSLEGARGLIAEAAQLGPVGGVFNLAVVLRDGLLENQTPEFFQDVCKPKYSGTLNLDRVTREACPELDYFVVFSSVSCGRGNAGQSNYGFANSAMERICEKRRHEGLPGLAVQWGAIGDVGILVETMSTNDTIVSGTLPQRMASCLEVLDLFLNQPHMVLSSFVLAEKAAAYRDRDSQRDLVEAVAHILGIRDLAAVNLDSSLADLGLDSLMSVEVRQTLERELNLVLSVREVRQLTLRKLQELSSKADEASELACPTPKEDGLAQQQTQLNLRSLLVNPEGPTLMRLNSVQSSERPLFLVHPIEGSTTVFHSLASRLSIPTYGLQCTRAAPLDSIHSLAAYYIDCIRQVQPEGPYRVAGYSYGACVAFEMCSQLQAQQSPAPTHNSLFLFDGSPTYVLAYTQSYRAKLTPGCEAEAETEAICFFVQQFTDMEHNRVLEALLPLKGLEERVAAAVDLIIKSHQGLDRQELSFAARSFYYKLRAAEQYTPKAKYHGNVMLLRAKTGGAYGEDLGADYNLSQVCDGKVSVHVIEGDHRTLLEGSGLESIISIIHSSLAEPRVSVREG

COc1cc(C2C(C#N)=C(N)OC3=C2C(=O)CC(C)(C)C3)cc([N+](=O)[O-])c1O (stereo not given)
EC50 [1]: > 300 µM (not active)
EC50 [2]: > 300 µM (not active)

Cc1cc(C=C2C(=O)c3ccccc3C2=O)c(C)n1-c1ccc(C(=O)O)cc1
EC50 [1]: > 300 µM (not active)
EC50 [2]: > 300 µM (not active)

COc1ccc(C2=NOC(Cn3c(Cc4ccc(Cl)cc4)nc4c3c(=O)n(C)c(=O)n4C)C2)cc1 (stereo not given)
EC50 [3]: > 120 µM (not active)
EC50 [4]: > 120 µM (not active)
EC50 [5]: > 120 µM (not active)

CCOc1ccccc1N1CCN(C(=O)CNC(=O)c2ccccc2F)CC1
EC50 [1]: > 300 µM (not active)
EC50 [2]: > 300 µM (not active)

CCCc1nc([N+](=O)[O-])c(S(=O)(=O)c2ccccc2)n1CC(C)C
AC50 [6]: 7.39 µM (active)
AC50 [7]: 25.9 µM (active)

O=c1[nH]c(CSc2ncccn2)nc2c1cnn2-c1ccccc1
EC50 [1]: 166 µM (inconclusive)
EC50 [2]: > 300 µM (not active)

O=C(CSc1nc(O)c2ccccc2n1)c1ccc(O)cc1O
IC50 (H9c2): > 79 µM (inactive)

CCOC(=O)[C@@H]1[C@H]2COc3ccc(Br)cc3[C@@H]2N2C(=O)N(c3cccc(F)c3)C(=O)[C@@]12C
AC50 [8]: 2.7 µM (active)
AC50 [9]: 4.41 µM (active)
AC50 [10]: 2.45 µM (active)
AC50 [11]: 4.21 µM (active)

O=C(CNC(=O)c1[nH]cnc1C(=O)NC(c1ccccc1)c1ccccc1)OCc1ccccc1
IC50 (H9c2): > 79 µM (inactive)

COc1ccc(/C=C(\C#N)c2nc3cc(C)ccc3[nH]2)cc1Oc1ccc(C(F)(F)F)cc1[N+](=O)[O-]
EC50 [12]: 4.59 µM (active)
EC50 [13]: 8.78 µM (active)

CSCCC(NS(=O)(=O)c1ccccc1)C(=O)OCc1cc(=O)oc2cc(O)ccc12 (stereo not given)
IC50 (H9c2): > 79 µM (inactive)

COc1ccc(C(=O)NNC2=Nc3cccc4cccc2c34)cc1
EC50 [3]: > 120 µM (not active)
EC50 [4]: 16.6 µM (active)
EC50 [5]: > 120 µM (not active)

Cc1ccc(-c2nnc(O)c3ccccc23)cc1S(N)(=O)=O
IC50 (H9c2): 21.8 µM (active)

COc1ccc(OC)c(C2=C/C(=C/c3ccccn3)C(=O)O2)c1
EC50 [1]: > 300 µM (not active)
EC50 [2]: 45.8 µM (active)

CC(C)(C)c1ccc(OCCC(=O)OCC(=O)NC2CCCCC2)cc1
IC50 (Fatty acid synthase [14]): 8.28 µM (active)
IC50 (Fatty acid synthase [15]): 5.35 µM (active)

CC(OC(=O)c1ccc(NC(=O)CC#N)cc1)C(=O)NCCC1=CCCCC1 (stereo not given)
AC50 [9]: 0.439 µM (active)

COc1ccc(Cl)cc1NC(=O)CN(C)C(=O)CCCc1c[nH]c2ccccc12
AC50 [8]: 3.29 µM (active)
AC50 [9]: 5.13 µM (active)
AC50 [10]: 4.68 µM (active)
AC50 [11]: 4.6 µM (active)

O=C(Oc1cccc(N2C(=O)C3C4c5ccccc5C(c5ccccc54)C3C2=O)c1)c1ccco1 (stereo not given)
IC50 (Fatty acid synthase [14]): 33.4 µM (inactive)
IC50 (Fatty acid synthase [15]): 28.5 µM (inactive)

COc1ccc(-c2csc3ncnc(Oc4ccc5c(C)cc(=O)oc5c4)c23)cc1
EC50 [12]: 24.8 µM (active)
EC50 [13]: 47.3 µM (active)

C[C@H](NC(=O)C1CCN(S(=O)(=O)c2ccccc2)CC1)C(=O)NCc1ccc(Cl)c(Cl)c1
IC50 (Fatty acid synthase [14]): 12.4 µM (active)
IC50 (Fatty acid synthase [15]): 14.5 µM (active)

O=C(Nc1ccccc1)c1nc[nH]c1C(=O)NCCNC(=O)c1[nH]cnc1C(=O)Nc1ccccc1
IC50 (H9c2): > 79 µM (inactive)

CC[C@@]1(C(=O)OC)N[C@H](CN(C)C(=O)Nc2ccc(OC)cc2)[C@@H]2C(=O)N(Cc3ccccc3)C(=O)[C@@H]21
AC50 [8]: 1.1 µM (active)
AC50 [9]: 1.71 µM (active)
AC50 [10]: 1.46 µM (active)
AC50 [11]: 1.32 µM (active)

COc1ccccc1N(C)S(=O)(=O)c1ccc(Cl)c(C(=O)NCC2(N(C)C)CCCCC2)c1
AC50 [8]: 2.92 µM (active)
AC50 [9]: 3.96 µM (active)
AC50 [10]: 5.54 µM (active)
AC50 [11]: 3.32 µM (active)

Cc1c(Cl)c(=O)oc2cc(OCC(=O)N3CCCC(C)C3)ccc12 (stereo not given)
IC50 (Fatty acid synthase [14]): 6.55 µM (active)
IC50 (Fatty acid synthase [15]): 10.3 µM (active)

COc1ccc(CCn2c(=O)c3cccnc3n(Cc3ccc([N+](=O)[O-])cc3)c2=O)cc1OC
IC50 (H9c2): > 79 µM (inactive)

COC(=O)[C@]1(C)N[C@H](CN(C)C(=O)Nc2ccc(Cl)cc2)[C@@H]2C(=O)N(Cc3ccccc3)C(=O)[C@@H]21
AC50 [8]: 0.659 µM (active)
AC50 [9]: 1.12 µM (active)
AC50 [10]: 1.5 µM (active)
AC50 [11]: 1.3 µM (active)

O=C(COc1ccc2c3c(c(=O)oc2c1)CCC3)N1CCN(c2ccccc2)CC1
IC50 (Fatty acid synthase [14]): 12.2 µM (active)
IC50 (Fatty acid synthase [15]): 8.68 µM (active)

C=CCOC(=O)COc1ccc2c3c(c(=O)oc2c1)CCCC3
IC50 (H9c2): 14.5 µM (active)

COCCn1cnc2c(c1=O)c1nc3ccccc3nc1n2/N=C/c1cccc(OC)c1
IC50 (H9c2): 24.5 µM (active)
IC50 [16]: > 47.1 µM (inactive)
EC50 [17]: > 53 µM (inactive)

COc1ccc2[nH]c3c(c2c1)CCN1C(=O)C(CC(=O)NCCC2=CCCCC2)C[C@H](C(=O)N2CCOCC2)[C@@]31CCC1CCCC1 (stereo not given in full)
IC50 (Fatty acid synthase [14]): 44.9 µM (inactive)
IC50 (Fatty acid synthase [15]): 80 µM (inactive)

COc1cc([N+](=O)[O-])cc(/C=N/NC(=O)c2cccnc2)c1O
EC50 [18]: 2.99 µM (active)
EC50 (Streptococcus): 1.76 µM (active)
IC50 (Fatty acid synthase [14]): 9.23 µM (active)
IC50 (Fatty acid synthase [15]): 9.94 µM (active)

Nc1c(S(=O)(=O)c2cccc(Cl)c2)c2nc3ccccc3nc2n1/N=C/c1ccc(O)c(O)c1
EC50 [19]: > 160 µM (inconclusive)
EC50 [3]: 11.4 µM (active)
EC50 [4]: 12.5 µM (active)
EC50 [5]: 9.66 µM (active)
EC50 [20]: 3.16 µM (active)
EC50 [21]: 6.98 µM (active)

O=C(Cn1nnc(-c2ccccc2Cl)n1)N/N=C/c1ccc(-c2cccc(Cl)c2)o1
EC50 [12]: 20.1 µM (active)
EC50 [13]: 39.1 µM (active)

COC(=O)N/N=C/c1cn(Cc2ccc(F)cc2)c2ccccc12
EC50 [3]: 9.2 µM (active)
EC50 [4]: 12.8 µM (active)
EC50 [5]: 7.94 µM (active)
